Results as given in US20030220312A1, “Epoxy-steroidal aldosterone antagonist and calcium channel blocker combination therapy for treatment of cardiovascular disorders” (G.D. Searle & Co., priority 2000, published 2003).

Assays:
[1] = Thermogravimetry / DSC of eplerenone solvates (desolvation); type: physicochemical; conditions: eplerenone solvate of the named solvent; extrapolated from final solvent weight loss step, thermogravimetric analysis at 10° C./minute under nitrogen purge
Experimental: Each sample (1-10 mg) was placed in an unsealed aluminum pan and heated at 10° C./minute.
Thermogravimetric analysis of solvates was performed using a TA Instruments TGA 2950 thermogravimetric analyzer. Samples were placed in an unsealed aluminum pan under nitrogen purge. Starting temperature was 25° C. with the temperature increased at a rate of about 10° C./minute.

[2] = tested on: hypertensive rats; test: Assay C: Hypertensive Rat Model (renal artery clip); type: in vivo; conditions: combination of calcium channel blocker and eplerenone versus either component alone, 12 to 24 weeks, expected
Source text: Assay “C”: Hypertensive Rat Model Male rats are made hypertensive by placing a silver clip with an aperture of 240 microns on the left renal artery, leaving the contralateral kidney untouched. Sham controls undergo the-same procedure but without attachment of the clip. One week prior to the surgery, animals to be made hypertensive are divided into separate groups and drug treatment is begun. […] The hearts are removed, weighed, measured and fixed in formalin. Collagen content of heart sections are evaluated using computerized image analysis of picrosirius stained sections.

[3] = tested on: rats with myocardial infarction; test: Assay D: Myocardial Infarction Rat Model (coronary ligation); type: in vivo; conditions: combination of calcium channel blocker and eplerenone versus either component alone, six weeks, expected
Experimental: Assay “D”: Myocardial Infarction Rat Model: Male rats are anesthetized and the heart is exteriorized following a left sided thoracotomy. The left anterior descending coronary artery is ligated with a suture. The thorax is closed and the animal recovers. Sham animals have the suture passed through without ligation. One week prior to the surgery, animals to undergo infarction are divided into separate groups and drug treatment is begun. Groups of animals are administered vehicle, calcium channel blocker alone, eplerenone alone, and combinations of calcium channel blocker and eplerenone, at various doses, as follow: After six weeks, systolic and diastolic blood pressure, left ventricular end diastolic pressure, left ventricular dP/dT, and heart rate are evaluated. The hearts are removed, weighed, measured and fixed in formalin. Collagen content of heart sections are evaluated using computerized image analysis of picrosirius stained sections.

[4] = tested on: patients with mild to moderate hypertension; test: Example 19 clinical study: eplerenone versus placebo co-administered with a calcium-channel blocker; type: in vivo, human
Source text: This multicenter, randomized, double-blind, placebo-controlled, placebo run-in, parallel group trial involving a minimum of 120 randomized patients with hypertension (seated diastolic blood pressure [seDBP] ≧95 mmHg and <110 mmHg and seated systolic BP [seSBP] <180 mmHg while taking a CCB) will consist of a one- to two-week pretreatment screening period followed by a two- to four-week single-blind placebo run-in period and an 8-week double-blind treatment period. Eligible patients will be patients currently receiving a CCB as part of their antihypertensive medication. […] The dose will not be changed for patients with adequate BP control. […] If the dose has been increased at Week 2, the patient will be reassessed at Week 6. […] If BP is uncontrolled at Week 6 and the dose has been increased at Week 2 or Week 4, the patient must be withdrawn from the study. If symptomatic hypotension (i.e., lightheadedness, dizziness, or syncope associated with low BP) occurs at any time during the study, or if DBP is ≧110 mmHg or SBP is ≧180 mmHg at any time during the trial, the patient must be withdrawn. Patients will receive study medication for a total of 8 weeks.
Patients will return to the clinic for evaluations at Weeks 0 (baseline), 2, 4, 6, 8, and 9. Heart rate, BP, adverse events and concomitant medication will be assessed at each visit. Hematology and biochemistry evaluations and urinalysis for safety will be at Weeks 0, 8, and 9. Serum potassium levels will be determined at Weeks 0 (baseline), 2, 4, 6, 8, and 9. Plasma renin, serum aldosterone, and plasma cortisol will be determined at Weeks 0 and 8. A 12-lead electrocardiogram and physical examination will be done at screening and at Week 9.
The study will consist of a one- to two-week pretreatment screening period followed by a two- to four-week single-blind placebo run-in treatment period, prior to randomization to an eight-week double-blind treatment period.
Eligible patients will be either currently receiving a CCB alone, or receiving a CCB as part of their antihypertensive medication. […] The dose will not be changed for patients with adequate BP control. […] If the dose has been increased at Week 2, the patient will be reassessed at Week 6. The dose of study medication will not be changed for patients with adequate BP control. […] If BP is uncontrolled at Week 6 and the dose has been increased at Week 2 or Week 4, the patient must be withdrawn from the study. The dose of study medication will not be changed for patients with adequate BP control. If symptomatic hypotension (i.e., lightheadedness, dizziness, or syncope associated with low BP) occurs at any time during the study, or if DBP is ≧110 mmHg or SBP is ≧180 mmHg at any time during the study, the patient must be withdrawn. Patients will receive study medication for a total of eight weeks.
Patients will return to the clinic for evaluations at Weeks 0, 2, 4, 6, 8, and 9. Heart rate, BP, adverse events and concomitant medication will be assessed at each visit. Hematology and biochemistry evaluations and urinalysis for safety will be at Weeks 0, 8, and 9. Serum potassium levels will be determined at Weeks 0, 2, 4, 6, 8, and 9. Plasma renin, serum aldosterone, and plasma cortisol will be determined at Weeks 0 and 8. […]
BP evaluations will be analyzed at each visit using two-way analysis of covariance (ANCOVA) with the baseline measurement as the covariate and treatment and center as factors. […]

[5] = tested on: patients with heart failure after an acute myocardial infarction; test: Example 20 clinical study: eplerenone plus CCB in heart failure following acute myocardial infarction; type: in vivo, human; conditions: expected
Source text: Secondary endpoints include cardiovascular morbidity and mortality. […] (a) pulmonary edema (bilateral posttussive crackles extending at least 1⁄3 of the way up the lung fields in the absence of significant chronic pulmonary disease); or (b) chest x-ray showing pulmonary venous congestion with interstitial or alveolar edema; or (c) auscultatory evidence of a third heart sound (S3) with persistent tachycardia (>100 beats per minute). Eligible patients may be identified for inclusion at any time following emergency room evaluation and presumptive diagnosis of AMI with HF. […] Patients with implanted cardiac defibrillators are excluded. Patients will receive CCB therapy and may have received anticoagulants and antiplatelet agents, and may have received thrombolytics or emergency angioplasty. […] Serum potassium will be determined at 48 hours after initiation of treatment, at 1 and 5 weeks, at all other scheduled study visits, and within one week following any dose change. […] Vital signs (seated heart rate and BP), New York Heart Association (NYHA) functional class, adverse events, and selected concurrent medications will be recorded at every visit. […]

[6] = Form H content of the Form H seeding product by DSC; type: physicochemical; conditions: cooling rate (0) 1.5° C./min, cooling endpoint (0) 25° C., 100.8% eplerenone seeded with Form H
Source text: The X-ray powder diffraction model, however, had not been tested for linearity beyond about 15% Form H. This experiment was the only one of the four experiments of this Example where Form H was created in the absence of the diepoxide.

[7] = X-ray powder diffraction estimate of Form H content of dried solids; type: physicochemical; conditions: for Estimated Weight Percent of Form H: dried solids from methyl ethyl ketone crystallization
Experimental: The weight percent of the diepoxide or 11,12-epoxide in each sample is given in Tables X-6A and X-6B, respectively. A micro-flea magnetic stirrer was added to each scintillation vial along with 1 mL of methyl ethyl ketone. The vials were loosely capped and the solid dissolved by heating to reflux on a hot plate with magnetic stirring. Once the solids were dissolved, the solutions were allowed to cool to room temperature on the hot plate. Magnetic stirring was maintained during the cooling period. After the solutions reached room temperature, the solids were collected by vacuum filtration and immediately analyzed by X-ray powder diffraction (XPRD). The solids were then placed in a 100° C. oven and dried for one hour at ambient pressure. The dried solids were analyzed by XPRD for Form H content by monitoring the area of the Form H diffraction peak at about 12.1 degrees two theta. All XPRD diffraction patterns were recorded using an Inel Multipurpose Diffractometer.
Variables in the design of the experiments included cooling rate, starting material purity level, and end point temperature of crystallization.
High endpoint was defined as 45° C. and low endpoint was defined as 5° C. High cooling rate was defined as 3° C./minute cooling and low cooling rate was defined as 0.1° C./minute cooling.
After a background reading was taken with the FTIR, 250 mL of methyl ethyl ketone was charged to a 1 L Mettler RC-1, MP10 reactor and stirred at 100 rpm. […] Agitation was increased to 500 rpm to suspend solids and the batch temperature was increased to 80° C. […] Black or white specks generally were visible in the resulting transparent solution. The batch temperature was then ramp cooled at the desired rate to the desired endpoint, where it was maintained for one hour before being pulled into a transfer flask and filtered. […] reactor, transfer flask and cake were then washed with 120 mL methyl ethyl ketone. Once the wash was pulled through the cake, the stopped. About 10 grams of each wet cake were dried in a vacuum oven under nominal conditions of 75° C. with a light nitrogen bleed. […]

[8] = tested on: myocardial fibrosis in animal models; conditions: literature (Klug et al; Brilla et al); cited from earlier work
[9] = CCB and eplerenone compared to CCB and placebo, Week 8
[10] = eplerenone 50-100 mg plus CCB versus CCB and placebo, eight weeks, hypertensive patients

| Compound | Desolvation Temperature [1] [°C] | also measured |
| --- | --- | --- |
| CCCCO [n-Butanol] | 103 |  |
| CCCCCCCCO [n-Octanol] | 116 |  |
| Ethanol | 166 |  |
| Isobutyl Acetate | 112 |  |
| Propylene Glycol | 188 |  |
| Methyl Acetate | 103 |  |
| Tetrahydrofuran | 136 |  |
| COC(=O)[C@@H]1CC2=CC(=O)CC[C@]2(C)[C@@]23O[C@@H]2C[C@@]2(C)[C@@H](CC[C@@]24CCC(=O)O4)[C@H]13 [eplerenone, pregn-4-ene-7,21-dicarboxylic acid, 9,11-epoxy-17-hydroxy-3-oxo, γ-lactone, methyl ester, (7α,11α,17α)-] |  | cardiac performance [2]: improvements in cardiac performance; cardiac performance [3]: improvements in cardiac performance; change in active renin levels [4, 9]: greater increase; change in aldosterone levels [4, 9]: greater increase; change in mean diastolic blood pressure [4, 10]: greater for the dual therapy group, compared to monotherapy, but this difference did not reach statistical significance; change in systolic blood pressure [4, 10]: significant reduction; serious adverse events ([4]; eplerenone added to CCB therapy, eight weeks): no serious adverse events; all cause mortality (primary end point) ([5]; eplerenone plus CCB relative to CCB alone): Improvement; secondary end points (cardiovascular mortality, hospitalizations, atrial fibrillation, stroke, quality of life) ([5]; eplerenone plus CCB versus CCB alone): Beneficial effects; Weight Percent Form H when analyzed by DSC [6]: 100 Weight Percent; Weight Percent Form H (XPRD) ([7]; cooling rate (+) 3° C./min, cooling endpoint (+) 45° C., impurity level (++) 61.1% purity eplerenone starting material, appears to be mixture of Form H and diepoxide): 100^5 Weight Percent; Estimated Weight Percent of Form H ([7]; 0% diepoxide in starting eplerenone mixture): None; Estimated Weight Percent of Form H ([7]; 1% diepoxide in starting eplerenone mixture): None |
| Chloroform | 125 |  |
| Acetone | 117 |  |
| Propyl Acetate | 130 |  |
| Butyl Acetate | 108 |  |
| Methyl Ethyl Ketone | 89 |  |
| Toluene | 83 |  |
| Ethyl Propionate | 122 |  |
| Isopropanol | 121 |  |
| t-Butyl Acetate | 109 |  |
| CC(=O)S[C@@H]1CC2=CC(=O)CC[C@]2(C)[C@H]2CC[C@@]3(C)[C@@H](CC[C@@]34CCC(=O)O4)[C@H]12 [spironolactone] |  | myocardial fibrosis [8]: prevents myocardial fibrosis |
